Results from patent US20050230662A1, “Diaminostilbene derivatives” (priority 1999, published 2005).

Experiment: evaluation of solubility in water (dissolving at 40° C., then deposition on ice bath at 0° C.)
Type: physicochemical
Settings: for Solubility at 40° C.: time to dissolve 20 g sample in 100 mL water on warm bath at 40° C., stirred; for Solubility of 0° C.: time to deposition, aqueous solution (20 g/100 mL) on ice bath under stirring
Method: Compounds I-1, I-2, I-4, I-11, I-12, and I-22 obtained above, and the Comparison Compounds a, b, c and d were subjected to evaluation of solubility in water.
Water (100 mL) was added to 20 g of each sample, and the mixture was placed on a warm bath (at 40° C.), and stirred using a magnetic stirrer, so that the added sample was dissolved in the warm water. Then, the obtained aqueous solution was placed on an ice bath under stirring.

Solubility at 40° C. | Solubility of 0° C. | SMILES
some insoluble remained at 300 sec. | – | O=S(=O)([O-])CCNc1nc(NCCCO)nc(Nc2ccc(C=Cc3ccc(Nc4nc(NCCCO)nc(NCCS(=O)(=O)[O-])n4)cc3S(=O)(=O)[O-])c(S(=O)(=O)[O-])c2)n1.[Na+].[Na+].[Na+].[Na+] [Comp. a, reference compound]
dissolved within 120 sec. | No deposition within 180 sec. | O=S(=O)([O-])CCNc1nc(NCC(O)CO)nc(Nc2ccc(C=Cc3ccc(Nc4nc(NCCS(=O)(=O)[O-])nc(NCC(O)CO)n4)cc3S(=O)(=O)[O-])c(S(=O)(=O)[O-])c2)n1.[Na+].[Na+].[Na+].[Na+] (stereo not shown) [Comp. I-1]
dissolved within 120 sec. | No deposition within 180 sec. | O=S(=O)([O-])CCNc1nc(NCCOCCO)nc(Nc2ccc(C=Cc3ccc(Nc4nc(NCCOCCO)nc(NCCS(=O)(=O)[O-])n4)cc3S(=O)(=O)[O-])c(S(=O)(=O)[O-])c2)n1.[Na+].[Na+].[Na+].[Na+] [Comp. I-11]
some insoluble remained at 300 sec. | – | CC(C)(CO)CNc1nc(NCCS(=O)(=O)[O-])nc(Nc2ccc(C=Cc3ccc(Nc4nc(NCCS(=O)(=O)[O-])nc(NCC(C)(C)CO)n4)cc3S(=O)(=O)[O-])c(S(=O)(=O)[O-])c2)n1.[Na+].[Na+].[Na+].[Na+] [Comp. b, reference compound]
– | No deposition within 180 sec. | O=S(=O)([O-])CCNc1nc(NCCC(O)CO)nc(Nc2ccc(C=Cc3ccc(Nc4nc(NCCC(O)CO)nc(NCCS(=O)(=O)[O-])n4)cc3S(=O)(=O)[O-])c(S(=O)(=O)[O-])c2)n1.[Na+].[Na+].[Na+].[Na+] (stereo not shown) [Comp. I-4]
